This note sets out measurements from patent publication US8895753B2, “S1P receptor modulating agent” (Meiji Seika Pharma Co., Ltd., priority 2011, dated 2014).

A word on the EC50: it is the concentration giving half of the maximal effect.

Each structure is given as a SMILES string. “And” between values parts separate entries of the source, which are not always exact repeats. Equal entries are not always repeated.

Experiment [1] addresses T1, Human S1P1 receptor (Homo sapiens, UniProt P21453). As to the kind of experiment: Agonist activity at an S1P1 receptor (reporter assay, EDG1-bla/U2OS cells). In kind it is cell-based. On the set-up: host or cells: U2OS (EDG1-bla/U2OS). Particulars: S1P maximum response = 100%. The procedure:
Human S1P1 receptor gene recombinant EDG1-bla/U2OS cells (Life Technologies Japan Ltd.) were plated in a 96-well half-sized clear bottom black plate at a density of 10000 cells/32 μL/well, and then the plate was incubated at 37° C. in a 5% CO2 incubator for 48 hours. A culture medium containing each test compound prepared as a 5× concentrate was added at 8 μL/well, and the plate was incubated at 37° C. in a 5% CO2 incubator for 5 hours. The substrate (LiveBLAzer™-FRET B/G substrate (CCF4-AM), Life Technologies Japan Ltd.) prepared as a 6× concentrate was added at 8 μL into each well, and the plate was incubated at room temperature for 2 hours in the dark. The fluorescence intensity of each well was detected using a bottom-reading fluorescence microplate reader (EnVision: ParkinElmer) at one excitation wavelength and 2 wavelengths for fluorescence emission (Ex409 nm, Em460 nm, Em530 nm). The intensity ratio of fluorescence at 460 nm/530 nm was calculated for each well. The maximum response ratio confirmed from the dose response of SIP was expressed as 100%. The concentration of a test compound required to stimulate 50% of its maximal activation was computed as EC50 (nM).
Background: In a reporter assay the amount or activity of a reporter protein is the signal.

Experiment [2] addresses T1, Human S1P1 receptor. Description: Agonist activity at an S1P1 receptor ([35S]-GTPγS exchange reaction, membrane fractions). In kind it is biochemical. As to conditions: read-out: EC50, agonist activity at S1P1 receptor (GTP exchange reaction). The procedure:
(§1) By using membrane fractions prepared from a human S1P1 receptor expressing cells (Multispan Ltd.), the agonist activity of each test compound was measured by [^35S]-GTPγS exchange reaction in accordance with a standard procedure (Methods in Molecular Biology, Vol. 552, p 143-151 (2009)), and EC50 (nM) of each test compound was computed.

The next experiment addresses T2, Human S1P4 receptor (Homo sapiens, UniProt O95977).
T2 sequence (O95977 1-384): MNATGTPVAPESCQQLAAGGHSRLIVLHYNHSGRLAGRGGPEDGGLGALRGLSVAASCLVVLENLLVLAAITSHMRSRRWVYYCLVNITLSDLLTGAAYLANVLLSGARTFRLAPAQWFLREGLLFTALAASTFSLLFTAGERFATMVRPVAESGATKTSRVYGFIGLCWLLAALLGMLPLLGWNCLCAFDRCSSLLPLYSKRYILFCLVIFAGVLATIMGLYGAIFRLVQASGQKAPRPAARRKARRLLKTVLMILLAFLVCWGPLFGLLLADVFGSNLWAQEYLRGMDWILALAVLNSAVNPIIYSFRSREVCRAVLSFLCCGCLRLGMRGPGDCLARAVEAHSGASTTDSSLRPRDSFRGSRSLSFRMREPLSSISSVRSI
Description: Agonist activity at an S1P4 receptor (calcium influx). In kind it is cell-based. As to conditions: at 1000 nM; read-out: activity at S1P4 receptor (elevation of intracellular calcium). As to the method: By using Human S1P4 receptor expressing cells (Multispan Inc. CG1052-1), the elevation of intracellular calcium concentration via agonist activity by the addition of 1000 nM was measured by Fret method (fluorescence resonance energy transfer).
For orientation: Calcium flux is commonly read through the fluorescence of an indicator in the cells.

A further experiment addresses Human S1P3 receptor (Homo sapiens, UniProt Q99500). As to the kind of experiment: Agonist activity at an S1P3 receptor ([35S]-GTPγS exchange reaction at 1000 nM). As to conditions: read-out: percent of the maximal agonist activity at S1P3 receptor. In kind it is biochemical. As to the method:
as §1
By using membrane fractions prepared from Human S1P3 receptor expressing cells (Multispan Inc.), the agonist activity of the compound in the present invention was measured by a [^35S]-GTPγS exchange reaction at 1000 nM by the similar method of the Experimental Example 2.

Human S1P3 receptor, sequence (Q99500 whole entry): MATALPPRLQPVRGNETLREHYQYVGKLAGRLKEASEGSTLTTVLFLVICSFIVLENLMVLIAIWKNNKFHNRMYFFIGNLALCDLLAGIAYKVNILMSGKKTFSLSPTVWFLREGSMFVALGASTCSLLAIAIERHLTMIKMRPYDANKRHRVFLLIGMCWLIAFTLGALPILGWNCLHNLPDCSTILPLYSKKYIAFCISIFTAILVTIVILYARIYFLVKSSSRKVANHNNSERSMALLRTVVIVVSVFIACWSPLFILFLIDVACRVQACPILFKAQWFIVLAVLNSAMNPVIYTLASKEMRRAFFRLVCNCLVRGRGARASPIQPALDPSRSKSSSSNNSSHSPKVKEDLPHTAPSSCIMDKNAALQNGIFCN
T1 sequence (P21453 whole entry): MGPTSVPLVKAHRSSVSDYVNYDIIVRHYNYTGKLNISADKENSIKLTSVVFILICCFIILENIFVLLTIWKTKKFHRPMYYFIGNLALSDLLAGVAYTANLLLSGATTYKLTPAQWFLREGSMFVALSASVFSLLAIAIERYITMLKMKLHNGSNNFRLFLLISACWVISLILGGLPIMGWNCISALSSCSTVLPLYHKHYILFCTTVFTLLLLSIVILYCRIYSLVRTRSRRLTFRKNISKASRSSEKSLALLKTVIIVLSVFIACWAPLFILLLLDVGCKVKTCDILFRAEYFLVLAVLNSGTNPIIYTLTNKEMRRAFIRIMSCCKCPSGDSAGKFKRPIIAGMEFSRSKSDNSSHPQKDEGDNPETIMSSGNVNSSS

As to `CC(C)Oc1ccc(-c2cnc(-c3ccc(CN4CC(c5nn[nH]n5)C4)cc3)s2)cc1` [Example 4, 2-(4-((3-(2H-tetrazol-5-yl)azetidin-1-yl)methyl)phenyl)-5-(4-isopropoxyphenyl)thiazole], at Human S1P1 receptor [1], the concentration for a half-maximal effect (EC50) is ≤ 100 nM and 87.1 nM.
As to `CC(C)Oc1ccc(-c2cnc(-c3ccc(CN4CCC(C(=O)O)CC4)cc3)s2)cc1` [Example 5, 1-(4-(5-(4-isopropoxyphenyl)thiazol-2-yl)benzyl)piperidine-4-carboxylic acid], the EC50 at Human S1P1 receptor [1] was ≤ 500 nM.
With `CC(C)Oc1cccc(-c2cnc(-c3ccc(CN4CC(C(=O)O)C4)cc3)s2)c1` [Example 7, 1-(4-(5-(3-isopropoxyphenyl)thiazol-2-yl)benzyl)azetidine-3-carboxylic acid], the EC50 at Human S1P1 receptor [1] was ≤ 100 nM and 72.6 nM.
As to `CC(C)Oc1ccc(-c2cnc(-c3ccc(C(C)N4CC(C(=O)O)C4)cc3)s2)cc1` (centres unmarked) [Example 8, 1-(1-(4-(5-(4-isopropoxyphenyl)thiazol-2-yl)phenyl)ethyl)azetidine-3-carboxylic acid], the EC50 at Human S1P1 receptor [2] is ≤ 100 nM; on Human S1P1 receptor [1], ≤ 10 nM and 6.58 nM. Further, the activation at 1 µM on Human S1P4 receptor was < 20%.
`CC(C)Oc1ccc(-c2cnc(-c3ccc(CN4CC(C(=O)O)C4)cc3F)s2)cc1Cl` [Example 11, 1-(4-(5-(3-chloro-4-isopropoxyphenyl)thiazol-2-yl)-3-fluorobenzyl)azetidine-3-carboxylic acid]: the EC50 was ≤ 10 nM on Human S1P1 receptor [2]; ≤ 1 nM and 0.076 nM at Human S1P1 receptor [1]. Moreover, the Emax at 1 µM at Human S1P3 receptor is 20 to 50%. Further, the activation at 1 µM on Human S1P4 receptor is < 20%.
For `CC(C)Oc1ccc(-c2cnc(-c3ccc(CN4CC(C(=O)O)C4)cc3Cl)s2)cc1` [Example 12, 1-(3-chloro-4-(5-(4-isopropoxyphenyl)thiazol-2-yl)benzyl)azetidine-3-carboxylic acid], the results for the EC50 at Human S1P1 receptor [2] and at Human S1P1 receptor [1] were ≤ 50 nM and ≤ 10 nM, respectively. In addition, on Human S1P3 receptor, the Emax at 1 µM lay in the range of 20 to 50%. For the same compound, the activation at 1 µM on Human S1P4 receptor was < 20%.
On to `CCCCc1cc(CN2CC(C(=O)O)C2)ccc1-c1ncc(-c2ccc(OC(C)C)cc2)s1` [Example 13, 1-(3-butyl-4-(5-(4-isopropoxyphenyl)thiazol-2-yl)benzyl)azetidine-3-carboxylic acid], for which the EC50 at Human S1P1 receptor [1] was ≤ 100 nM.
As to `CC(C)Oc1ccc(-c2cnc(-c3ccc(CN4CC(C(=O)O)C4)cc3C3CC3)s2)cc1` [Example 14, 1-(3-cyclopropyl-4-(5-(4-isopropoxyphenyl)thiazol-2-yl)benzyl)azetidine-3-carboxylic acid], the EC50 at Human S1P1 receptor [1] was ≤ 10 nM.
With `CCc1cc(CN2CC(C(=O)O)C2)ccc1-c1ncc(-c2ccc(OC(C)C)cc2)s1` [Example 15, 1-(3-ethyl-4-(5-(4-isopropoxyphenyl)thiazol-2-yl)benzyl)azetidine-3-carboxylic acid], the Emax at 1 µM at Human S1P3 receptor is < 20%. Further, the EC50 at Human S1P1 receptor [1] is ≤ 10 nM. The activation at 1 µM at Human S1P4 receptor was < 20%.
For `O=C(O)C1CN(Cc2ccc(-c3ncc(-c4ccc(OC5CC5)cc4)s3)cc2)C1` [Example 16, 1-(4-(5-(4-cyclopropoxyphenyl)thiazol-2-yl)benzyl)azetidine-3-carboxylic acid], the EC50 on Human S1P1 receptor [1] was ≤ 100 nM.
With `CC(C)Oc1ccc(-c2cnc(-c3ccc(CN4CC(C(=O)O)C4)cc3F)s2)cc1` [Example 17, 1-(3-fluoro-4-(5-(4-isopropoxyphenyl)thiazol-2-yl)benzyl)azetidine-3-carboxylic acid], the EC50 was ≤ 50 nM at Human S1P1 receptor [2] and ≤ 10 nM at Human S1P1 receptor [1]. Moreover, the activation at 1 µM at Human S1P4 receptor is < 20%.
Take `COc1cc(CN2CC(C(=O)O)C2)ccc1-c1ncc(-c2ccc(OC(C)C)cc2)s1` [Example 18, 1-(4-(5-(4-isopropoxyphenyl)thiazol-2-yl)-3-methoxybenzyl)azetidine-3-carboxylic acid]: the EC50 on Human S1P1 receptor [1] was ≤ 500 nM.
On the same count and under the same terms, the result for `CCc1cc(-c2ncc(-c3ccc(OC(C)C)cc3)s2)ccc1CN1CC(C(=O)O)C1` [Example 20, 1-(2-ethyl-4-(5-(4-isopropoxyphenyl)thiazol-2-yl)benzyl)azetidine-3-carboxylic acid] reads ≤ 100 nM.
For `Cc1cc(CN2CC(C(=O)O)C2)ccc1-c1ncc(-c2ccc(OC(C)C)cc2)s1` [Example 21, 1-(4-(5-(4-isopropoxyphenyl)thiazol-2-yl)-3-methylbenzyl)azetidine-3-carboxylic acid], the EC50 at Human S1P1 receptor [2] is ≤ 50 nM; at Human S1P1 receptor [1] it was ≤ 10 nM. Besides, on Human S1P3 receptor, the Emax at 1 µM is 20 to 50%. Also, the activation at 1 µM at Human S1P4 receptor is < 20%.
`CC(C)Oc1ccc(-c2cnc(-c3ccc(CN4CC(C(=O)O)C4)c(C4CC4)c3)s2)cc1` [Example 24, 1-(2-cyclopropyl-4-(5-(4-isopropoxyphenyl)thiazol-2-yl)benzyl)azetidine-3-carboxylic acid]: the EC50 at Human S1P1 receptor [1] is ≤ 100 nM.
Same read-out and setting: the result for `Cc1cc(-c2ncc(-c3ccc(OC(C)C)cc3)s2)ccc1CN1CC(C(=O)O)C1` [Example 25, 1-(4-(5-(4-isopropoxyphenyl)thiazol-2-yl)-2-methylbenzyl)azetidine-3-carboxylic acid] reads ≤ 10 nM.
On the same count and under the same terms, the figure for `COc1cc(-c2ncc(-c3ccc(OC(C)C)cc3)s2)ccc1CN1CC(C(=O)O)C1` [Example 26, 1-(4-(5-(4-isopropoxyphenyl)thiazol-2-yl)-2-methoxybenzyl)azetidine-3-carboxylic acid] is ≤ 100 nM; for `CC(C)Oc1ccc(-c2cnc(-c3ccc(CN4CC(C(=O)O)C4)c(C(F)(F)F)c3)s2)cc1` [Example 27, 1-(4-(5-(4-isopropoxyphenyl)thiazol-2-yl)-2-(trifluoromethyl)benzyl)azetidine-3-carboxylic acid] it is ≤ 100 nM; for `CC(C)(C)c1ccc(-c2cnc(-c3ccc(CN4CC(C(=O)O)C4)cc3)s2)cc1` [Example 33, 1-(4-(5-(4-tert-butylphenyl)thiazol-2-yl)benzyl)azetidine-3-carboxylic acid] it is ≤ 100 nM.
The same measure, in the same setting: the figure for `CCCCCCc1ccc(-c2cnc(-c3ccc(CN4CC(C(=O)O)C4)cc3)s2)cc1` [Example 35, 1-(4-(5-(4-hexylphenyl)thiazol-2-yl)benzyl)azetidine-3-carboxylic acid] is ≤ 500 nM; for `CCCCOc1ccc(-c2cnc(-c3ccc(CN4CC(C(=O)O)C4)cc3)s2)cc1` [Example 39, 1-(4-(5-(4-butoxyphenyl)thiazol-2-yl)benzyl)azetidine-3-carboxylic acid] it is ≤ 100 nM.
For `CCCCCOc1ccc(-c2cnc(-c3ccc(CN4CC(C(=O)O)C4)cc3)s2)cc1` [Example 40, 1-(4-(5-(4-pentyloxyphenyl)thiazol-2-yl)benzyl)azetidine-3-carboxylic acid], the EC50 on Human S1P1 receptor [1] was ≤ 500 nM.
For `O=C(O)C1CN(Cc2ccc(-c3ncc(-c4ccc(OC5CCCC5)cc4)s3)cc2)C1` [Example 41, 1-(4-(5-(4-(cyclopentyloxy)phenyl)thiazol-2-yl)benzyl)azetidine-3-carboxylic acid], on Human S1P1 receptor [1], the EC50 is ≤ 100 nM.
Regarding `O=C(O)C1CN(Cc2ccc(-c3ncc(-c4ccc(OC5CCCCC5)cc4)s3)cc2)C1` [Example 43, 1-(4-(5-(4-(cyclohexyloxy)phenyl)thiazol-2-yl)benzyl)azetidine-3-carboxylic acid], the EC50 at Human S1P1 receptor [1] is ≤ 100 nM.
The same measure, in the same setting: the figure for `CCCCCc1ccc(-c2cnc(-c3ccc(CN4CC(C(=O)O)C4)cc3)s2)cc1` [Example 49, 1-(4-(5-(4-pentylphenyl)thiazol-2-yl)benzyl)azetidine-3-carboxylic acid] is ≤ 100 nM.
Still for that read-out and setting: the figure for `Cc1cc(OC(C)C)ccc1-c1cnc(-c2ccc(CN3CC(C(=O)O)C3)cc2)s1` [Example 54, 1-(4-(5-(4-isopropoxy-2-methylphenyl)thiazol-2-yl)benzyl)azetidine-3-carboxylic acid] is ≤ 100 nM.
